Assay [1] addresses T1, ACD2 (ACCELERATED CELL DEATH 2; ACD2^40-320; Red Chlorophyll Catabolite Reductase) (Arabidopsis thaliana, UniProt Q8LDU4, E154A/D291H).
T1 sequence (Q8LDU4 40-319 E154A/D291H): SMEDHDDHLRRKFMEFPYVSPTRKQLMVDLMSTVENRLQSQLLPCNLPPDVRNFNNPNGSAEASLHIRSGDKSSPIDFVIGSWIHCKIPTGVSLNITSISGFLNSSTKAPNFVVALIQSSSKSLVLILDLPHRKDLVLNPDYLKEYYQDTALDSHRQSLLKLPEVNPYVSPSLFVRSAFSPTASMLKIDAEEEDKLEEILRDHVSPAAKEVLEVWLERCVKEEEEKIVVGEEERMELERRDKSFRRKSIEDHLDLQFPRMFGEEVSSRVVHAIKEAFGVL
The assay can be described thus: intrinsic tryptophan fluorescence quenching. It is filed as binding. The following applies: 0.1 μM protein, 50 mM Na2HPO4 pH 8.0, 25 mM NaCl, 22°C, excitation 296 nm.

In assay [2] the target is T2, ACD2 (ACCELERATED CELL DEATH 2; ACD2^40-320; Red Chlorophyll Catabolite Reductase) (Arabidopsis thaliana, UniProt Q8LDU4).
T2 sequence (Q8LDU4 40-319): T1 sequence (Q8LDU4 40-319 E154A/D291H) with A115E, H252D
In words: intrinsic tryptophan fluorescence quenching. It is filed as binding.

Where a chain is given by its changes, count along the chain named. Where two headings read alike, the source gives them in different places.

On to `C=CC1=C(C)/C(=C/C2=NC(=C3\c4[nH]c(Cc5[nH]c(C=O)c(C)c5CC)c(C)c4C(=O)[C@@H]3C(=O)OC)/[C@@H](CCC(=O)O)[C@@H]2C)NC1=O` [RCC], for which the Kd was 340 ± 30 nM in assay [1] and 360 ± 30 nM in assay [2] (0.1 μM protein, 50 mM Na2HPO4 pH 8.0, 25 mM NaCl, 22°C, excitation 296 nm).

`C=CC1=C(C)c2cc3[nH]c(cc4nc(cc5[nH]c(cc1n2)c(C)c5CCC(=O)O)C(CCC(=O)O)=C4C)c(C)c3C=C` [PPIX] displayed a dissociation constant Kd in assay [2] of 310 ± 20 nM.

As usually defined, the Kd is the free concentration of one partner at which half of the binding sites on the other are occupied at equilibrium, for simple one-to-one binding.
